Tested on: SaOS-2 cells
Assay: Estrogen-specific ALP (alkaline phosphatase) induction in SaOS-2 osteoblast cells
Type: cell-based
Settings: conclusion drawn from ALP induction in SaOS-2 cells
Protocol: To verify the effect of the compound of the present invention, non-reproductive tract target tissue response was carried out for measuring estrogenecity. […]
In this regard, the estrogenic activity of the compounds of the experimental groups as described above in the Example 1 was analyzed using SaOS-2 cells in this study.
For experiments, SaOS-2 cell line was purchased from Korean Type Culture Collection (KTCC). […] Thereafter, 50 μl of cell lysis buffer (100 mM Tris, 100 mM NaCl, 1 mM EDTA) was added to the culture media of each well and then, 150 μl of 30 mM p-nitrophenyl phosphate (Merk, Germany) was thoroughly mixed with shaking, followed by measuring the absorbance at 405 nm for 10 min at an interval of 50 sec. ALP induction was calculated as follows: % induction=[(Slopesample)/(Slope17β-estradiol)]×100. […]

Structure (SMILES)	estrogenic activity
O=C(O)/C=C/c1ccccc1 [cinnamic acid]	remarkable estrogenic activity
COC(=O)C1=CO[C@@H](O[C@H]2O[C@@H](CO)[C@H](O)[C@@H](O)[C@@H]2O)C2C1[C@H](O)C[C@]2(C)O (some centres unmarked) [shanzhiside methylester]	remarkable estrogenic activity

Reference: US9433595B2, “Phytoestrogenic compositions for preventing or treating symptoms associated with menopause” (Natural Endotech Co., Ltd., priority 2008, dated 2016)
